Test results taken from a compilation of properties of binary mixtures (doi:10.1016/j.molliq.2016.01.096).

Assay: xn = mol fraction of the nth substance listed
Conditions: 100 kPa

Compound `CCOCCO` + CCOS(=O)(=O)[O-].CC[n+]1ccn(C)c1 has a speed of sound (298.15 K, x1 = 0.1202) of 1654.9 m/s, a speed of sound (298.15 K, x1 = 0.1846) of 1638.2 m/s and a speed of sound (298.15 K, x1 = 0.3548) of 1586.6 m/s. For the same compound, the speed of sound (298.15 K, x1 = 0.5511) was 1516.8 m/s, the speed of sound (298.15 K, x1 = 0.6529) was 1476.3 m/s and the speed of sound (298.15 K, x1 = 0.9094) was 1356.8 m/s. For the same compound, the speed of sound (298.15 K, x1 = 0.9512) was 1333.2 m/s, the speed of sound (298.15 K, x1 = 1) was 1302.8 m/s and the speed of sound (308.15 K, x1 = 0.1202) was 1630.3 m/s. It also gave a speed of sound (308.15 K, x1 = 0.1846) of 1613.2 m/s, a speed of sound (308.15 K, x1 = 0.2326) of 1599.2 m/s and a speed of sound (308.15 K, x1 = 0.3548) of 1560.3 m/s. The speed of sound (308.15 K, x1 = 0.4516) was 1526.4 m/s, the speed of sound (308.15 K, x1 = 0.5511) was 1488.9 m/s and the speed of sound (308.15 K, x1 = 0.6529) was 1447.6 m/s. The speed of sound (308.15 K, x1 = 0.9094) was 1324.7 m/s, the speed of sound (308.15 K, x1 = 0.9512) was 1300.2 m/s and the speed of sound (308.15 K, x1 = 1) was 1268.6 m/s. For the same compound, the speed of sound (318.15 K, x1 = 0.0588) was 1620.5 m/s, the speed of sound (318.15 K, x1 = 0.1846) was 1588.4 m/s and the speed of sound (318.15 K, x1 = 0.3548) was 1534.4 m/s. The speed of sound (318.15 K, x1 = 0.4516) was 1499.8 m/s, the speed of sound (318.15 K, x1 = 0.5511) was 1461.4 m/s and the speed of sound (318.15 K, x1 = 0.6529) was 1419.1 m/s. For the same compound, the speed of sound (318.15 K, x1 = 0.741) was 1379.3 m/s, the speed of sound (318.15 K, x1 = 0.8273) was 1336.7 m/s and the speed of sound (318.15 K, x1 = 0.8658) was 1316.4 m/s. It also gave a speed of sound (318.15 K, x1 = 0.9094) of 1291.9 m/s, a speed of sound (318.15 K, x1 = 0.9512) of 1266.4 m/s and a speed of sound (318.15 K, x1 = 1) of 1233.3 m/s. For the same compound, the speed of sound (328.15 K, x1 = 0.1202) was 1581.6 m/s, the speed of sound (328.15 K, x1 = 0.1846) was 1563.9 m/s and the speed of sound (328.15 K, x1 = 0.3548) was 1509 m/s. The speed of sound (328.15 K, x1 = 0.4516) was 1473.7 m/s, the speed of sound (328.15 K, x1 = 0.6529) was 1390.8 m/s and the speed of sound (328.15 K, x1 = 0.8273) was 1305.7 m/s. For the same compound, the speed of sound (328.15 K, x1 = 0.9094) was 1259.3 m/s, the speed of sound (328.15 K, x1 = 0.9512) was 1232.9 m/s and the speed of sound (328.15 K, x1 = 1) was 1198.8 m/s.
`CCOS(=O)(=O)[O-].CC[n+]1ccn(C)c1` + CCOCCO gave a speed of sound (298.15 K, x2 = 0) of 1680.8 m/s, a speed of sound (318.15 K, x2 = 0) of 1632.4 m/s and a speed of sound (328.15 K, x2 = 0) of 1608.9 m/s.
